Values of other authors, collected in patent publication US20250009670A1, “Stable Solid Oral Formulation Of Tafamidis Or Pharmaceutically Acceptable Salt Thereof” (Navinta, LLC, priority 2023, published 2025).

O=C(O)c1ccc2nc(-c3cc(Cl)cc(Cl)c3)oc2c1 [Tafamidis, 2-(3,5-dichlorophenyl)-1,3-benzoxazole-6-carboxylic acid]
aqueous solubility: low aqueous solubility
